Measured values from PMC6337391 (Molecules, 2019).
Read-outs that look alike come from different tables or passages of the source.

Tests used:
[1] = ABTS•+ decolorization assay
Procedure, shortened: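 Compounds (10 mM DMSO stocks, diluted) added to ABTS•+ radical generated by potassium persulfate oxidation of ABTS. Decolorization followed as absorbance at room temperature, with Trolox as standard.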

soybean lipoxygenase [2] = molecular target: T1, soybean lipoxygenase (Glycine max, UniProt P08170); test: biochemical; assay type: biochemical; details: soybean LOX
T1 sequence (P08170 1-839): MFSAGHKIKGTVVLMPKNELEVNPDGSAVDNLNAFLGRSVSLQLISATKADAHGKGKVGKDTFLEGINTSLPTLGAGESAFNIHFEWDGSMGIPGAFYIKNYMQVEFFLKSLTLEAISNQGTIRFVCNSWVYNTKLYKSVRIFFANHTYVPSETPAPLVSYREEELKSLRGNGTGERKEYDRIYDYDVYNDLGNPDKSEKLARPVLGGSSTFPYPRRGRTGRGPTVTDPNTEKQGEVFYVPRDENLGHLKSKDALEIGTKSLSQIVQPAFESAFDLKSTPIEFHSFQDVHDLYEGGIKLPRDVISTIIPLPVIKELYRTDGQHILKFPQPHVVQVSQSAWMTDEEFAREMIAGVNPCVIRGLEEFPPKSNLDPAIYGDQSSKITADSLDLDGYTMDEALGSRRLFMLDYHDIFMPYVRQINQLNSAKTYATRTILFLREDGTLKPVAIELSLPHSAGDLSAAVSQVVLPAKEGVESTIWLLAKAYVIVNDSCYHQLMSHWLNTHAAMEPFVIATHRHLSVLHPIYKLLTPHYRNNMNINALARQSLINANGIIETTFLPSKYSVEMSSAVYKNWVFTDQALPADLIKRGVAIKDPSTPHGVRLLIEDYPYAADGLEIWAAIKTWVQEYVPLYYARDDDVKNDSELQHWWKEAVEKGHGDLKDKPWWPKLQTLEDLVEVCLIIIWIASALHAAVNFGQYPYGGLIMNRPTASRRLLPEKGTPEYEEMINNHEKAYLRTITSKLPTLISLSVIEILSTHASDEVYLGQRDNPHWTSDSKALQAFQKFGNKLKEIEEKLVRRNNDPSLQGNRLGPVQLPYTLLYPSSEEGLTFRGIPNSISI
Procedure, shortened: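 Soybean LOX (enzyme solution 1/9 × 10^−4 w/v in saline) incubated at room temperature with sodium linoleate ([…]) in tris buffer pH 9. Compounds added from DMSO stocks. IC50 derived from several concentrations.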

[3] = Reducing activity with the stable radical DPPH
Procedure, shortened: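 DPPH (final 0.05 mM) in absolute ethanol mixed with an equal volume of compound at 0.05 or 0.1 mM, ethanol as control. Absorbance at 517 nm read at room temperature after 20 and 60 min, expressed as reducing activity RA%.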

[4] = In vitro lipid peroxidation of liposomes
[5] = Lipophilicity as RM values by RP-TLC; assay type: physicochemical; parameters: key: RM = log[(1/Rf) − 1]; details: methanol/water 70/30, SD < 10%
Procedure, shortened: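 Reversed-phase TLC on silica gel plates impregnated with 5% (v/v) liquid paraffin, methanol/water 70/30 (v/v) mobile phase, saturated tanks at 24 °C, UV detection. RM = log[(1/Rf) − 1] from five Rf measurements.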

[6] = system: L929 mouse fibroblasts cells; test: Cytotoxicity, propidium iodide fluorescence method; assay type: cell-based; details: 24-h incubation
Procedure, shortened: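 L929 cells in EMEM with 10% horse serum were allowed to attach for 24 h, then exposed to 1, 10, 20, 50 and 100 μM compound for 24 h at 37 °C. Cells were detached, stained with propidium iodide, and cell death was measured by flow cytometry.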

[7] = Inhibition of linoleic acid lipid peroxidation (AAPH)
Procedure, shortened: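 Sodium linoleate oxidation was initiated by AAPH in 0.05 M phosphate buffer, pH 7.4, at 37 °C, with test compound present and DMSO as blank. Conjugated diene hydroperoxide formation was followed as the absorbance increase at 234 nm.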

[8] = parameters: method as in PMID 25798685; details: cited from earlier work
[9] = parameters: method as in PMID 25798685; details: cited from earlier work; remark: listed apart in the source
[10] = molecular target: acetyl-cholinesterase (AChE) (Electrophorus electricus, UniProt O42275); details: cited from earlier work
Chain of acetyl-cholinesterase (AChE) (O42275 24-633): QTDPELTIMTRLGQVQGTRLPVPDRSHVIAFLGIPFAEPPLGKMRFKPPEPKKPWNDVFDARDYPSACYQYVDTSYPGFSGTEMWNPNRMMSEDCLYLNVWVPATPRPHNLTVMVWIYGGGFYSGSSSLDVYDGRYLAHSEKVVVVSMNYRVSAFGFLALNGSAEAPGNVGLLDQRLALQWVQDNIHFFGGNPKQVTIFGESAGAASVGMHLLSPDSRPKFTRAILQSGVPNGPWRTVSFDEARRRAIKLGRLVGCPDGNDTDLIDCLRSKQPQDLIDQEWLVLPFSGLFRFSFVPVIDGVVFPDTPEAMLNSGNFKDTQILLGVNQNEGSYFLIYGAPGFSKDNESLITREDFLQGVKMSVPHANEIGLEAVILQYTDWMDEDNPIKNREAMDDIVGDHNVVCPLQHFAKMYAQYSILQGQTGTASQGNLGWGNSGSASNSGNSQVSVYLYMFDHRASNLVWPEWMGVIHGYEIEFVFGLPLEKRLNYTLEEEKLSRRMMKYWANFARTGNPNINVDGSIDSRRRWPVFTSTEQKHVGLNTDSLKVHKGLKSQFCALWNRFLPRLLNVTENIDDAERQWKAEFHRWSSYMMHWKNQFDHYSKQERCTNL

soybean lipoxygenase [11] = molecular target: T1, soybean lipoxygenase; parameters: method as in PMID 25798685; details: 100 μM; cited from earlier work
[12] = parameters: method as in PMID 25798685; details: RP-TLC, methanol/water 70/30, SD < 10%; cited from earlier work
[13] = parameters: method as in PMID 25798685; details: DPPH, cited from earlier work
[14] = system: L929 mouse fibroblasts cells; parameters: method as in PMID 25798685; details: 24-h incubation, cited from earlier work

Structure (SMILES): Cc1ccc(/C=C/C(=O)c2ccc(OCCCOc3ccc(C(=O)/C=C/c4ccc(C)o4)cc3)cc2)o1 [c12, (2E,2′E)-1,1′-((propane-1,3-diylbis(oxy))bis(4,1-phenylene))bis(3-(5-methylfuran-2-yl)prop-2-en-1-one)]
- ABTS•+ Inhb. % @ 100 μM [1]: 17%
- % LOX Inhb. @ 100 μM (soybean lipoxygenase [2]; 100 μM): 52%
- IC50 (soybean lipoxygenase [2]; read-out: LOX IC50): 96 µM
- RA% 100 μM 20 min ([3]; 20 min): No
- RA% 100 μM 60 min ([3]; 60 min): no
- % Inhb. of Liposomes LP @ 100 μM [4]: 74%
- RM [5]: −0.96
- 1 μM Average (% pi) ± σ ([6]; 1 μM): 13.22 ± 0.64%
- 10 μM Average (% pi) ± σ ([6]; 10 μM): 31.31 ± 4.84%
- 20 μM Average (% pi) ± σ ([6]; 20 μM): 53.79 ± 16.95%
- 50 μM Average (% pi) ± σ ([6]; 50 μM): 84.03 ± 2.25%
- 100 μM Average (% pi) ± σ ([6]; 100 μM): 84.03 ± 2.25%
- AAPH% @ 100 μM (anti-lipid peroxidation) [7]: 68%

Structure (SMILES): O=C(/C=C/c1ccc(OCc2ccc(Br)cc2)cc1)c1ccc(OCCCOc2ccc(C(=O)/C=C/c3ccc(OCc4ccc(Br)cc4)cc3)cc2)cc1 [c1, (2E,2′E)-1,1′-((propane-1,3-diylbis(oxy))bis(4,1-phenylene))bis(3-(4-((4-bromobenzyl)oxy)phenyl)prop-2-en-1-one)]
- ABTS•+ Inhb. % @ 100 μM [8]: no
- AAPH% @ 100 μM (anti-lipid peroxidation) [9]: 42%
- % AChE Inhb. @ 100 μM [10]: 23%
- % LOX Inhb. @ 100 μM (soybean lipoxygenase [11]): 41%
- RM [12]: −0.68
- RA% 100 μM 20 min ([13]; 20 min): 36%
- RA% 100 μM 60 min ([13]; 60 min): 55%
- 1 μM Average (% pi) ± σ ([14]; 1 μM): 38.5 ± 6.9%
- 10 μM Average (% pi) ± σ ([14]; 10 μM): 49.5 ± 7.8%
- 20 μM Average (% pi) ± σ ([14]; 20 μM): 53.5 ± 0.71%
- 50 μM Average (% pi) ± σ ([14]; 50 μM): 74 ± 5.6%
- 100 μM Average (% pi) ± σ ([14]; 100 μM): 74 ± 5.6%
